Experiment [1] relates to oil palm fruit. As to conditions: postharvest application, detached bunches; cited from earlier work.
The subject of a further experiment is oil palm. The experiment can be described thus: Pre-harvest bunch-directed spray on oil palm, fruit abscission (cumulative loose fruit and loose mass). The following applies: for % Difference with UTC (Cumulative Loose Fruit) / % Difference with UTC (Cumulative Loose Mass) / Cumulative Loose Mass / Cumulative Loose Fruit: single spray 100 mL/bunch; for % Difference with UTC (Cumulative Loose Fruit) / % Difference with UTC (Cumulative Loose Mass) / Cumulative Loose Mass: 14 days; for Cumulative Loose Fruit: counted for 14 days. The experiment is classed as in vivo, oil palm (cross between Compact and Ghana). The method, then: A study was conducted in a plantation in Costa Rica to compare the effects of single bunch-directed applications of: (1) untreated control (water sprayed); (2) AVG at 500 ppm active ingredient (a.i.); (3) 240 ppm a.i. of STS; (4) 720 ppm a.i. of STS; (5) 2,200 ppm a.i. of STS; and (6) 6,600 ppm a.i. of STS. In this study, AVG was provided in a formulation as AVG-HCl at a concentration of 20%. STS was prepared using a 100 mM sodium thiosulfate treatment. For each treatment, 23 palms were randomly selected covering about 15 hectares. The variety of plants used was a cross between Compact and Ghana. The plants were three years old at the time of treatment. A CO2 sprayer was used to spray all treatments (100 mL/bunch) to bunches with 1 to 4 loose fruits. The time required to spray each bunch was about 8 seconds at 20 psi using a 2.0 full cone nozzle. The treatments were applied once per bunch. Ten and thirteen bunches per treatment were sprayed on Apr. 15 and 22, 2015, respectively. Cumulative loose fruit (CLF) and cumulative loose mass (CLM) counts were determined on a daily basis for 14 days with the exception of day 4 and day 9 (for second spray only) and day 11 (after initial spray only) as measure to objectively quantify fruit abscission. An electronic balance was used to weigh all fruit. All loose fruit on the bunch, branches and on the ground was counted and weighed.

Experiment [2] has as its system oil palm fruit. The following applies: preharvest application to attached bunches; cited from earlier work.
The mark [3] stands for this setting: 240 to 6,600 ppm a.i., overall statement.

For `NOCC(=O)O` [AOA, aminooxyacetic acid], the “abscission of oil palm fruit” value in the experiment with oil palm fruit [1] is listed as “delayed or suppressed abscission”.
For `NCCO/C=C/[C@H](N)C(=O)O` [AVG, aminoethyoxyvinylglycine, reference compound], in the experiment on oil palm (500 ppm a.i.), the “% Difference with UTC (Cumulative Loose Fruit)” value came out at 71.4%, the “% Difference with UTC (Cumulative Loose Mass)” value was 70.8%, the “Cumulative Loose Mass” value is recorded as 321 g and the “Cumulative Loose Fruit” value amounted to 72.0.
On to `O=P(O)(O)CCCl` [ethephon, 2-chloroethyl phosphonic acid], for which, in the experiment on oil palm fruit [2], the “increase of oil content” value was 7%.
Take silverthiosulfate [STS]: in the experiment on oil palm (240 ppm a.i.), the “% Difference with UTC (Cumulative Loose Fruit)” value is 14.4%, the “% Difference with UTC (Cumulative Loose Mass)” value was −0.4%, the “Cumulative Loose Mass” value came to 1106 g and the “Cumulative Loose Fruit” value was 129.0. Also, in the experiment on oil palm (setting [3]), the “effect on cumulative loose fruit” value is listed as “did not consistently decrease” and the “effect on cumulative loose mass” value is recorded as “did not consistently decrease”. In addition, in the experiment with oil palm (720 ppm a.i.), the “% Difference with UTC (Cumulative Loose Fruit)” value worked out at 18.7%, the “% Difference with UTC (Cumulative Loose Mass)” value turned out to be 11.3%, the “Cumulative Loose Mass” value amounted to 977 g and the “Cumulative Loose Fruit” value was found to be 124.7. In addition, in the experiment with oil palm (2,200 ppm a.i.), the “% Difference with UTC (Cumulative Loose Fruit)” value is recorded as −15.7%, the “% Difference with UTC (Cumulative Loose Mass)” value is reported as −26.4%, the “Cumulative Loose Mass” value is recorded as 1392 g and the “Cumulative Loose Fruit” value is reported as 159.1. In the experiment on oil palm (6,600 ppm a.i.), the “% Difference with UTC (Cumulative Loose Fruit)” value is recorded as 25.9%, the “% Difference with UTC (Cumulative Loose Mass)” value worked out at 7.3%, the “Cumulative Loose Mass” value was found to be 1020 g and the “Cumulative Loose Fruit” value was 117.5.

Values taken from patent US9622482B2, “Methods for increasing oil palm yield” (Valent BioSciences Corporation, priority 2014, dated 2017).
